ED50 data for nine compounds are collected here from patent publication US4588722A, “N-(4-piperidinyl) bicyclic condensed 2-imidazolamine derivatives” (priority 1984, dated 1986).

This test has as its system compound 48/80-induced lethality in rats. Description: Protection of rats from compound 48/80-induced lethality. It is filed as in vivo, rat (male, inbred Wistar strain). The settings on record: Rattus norvegicus; test compound subcutaneously or orally (route of each value not given) 1 hour before compound 48/80 0.5 mg/kg intravenously; dose protecting 50% of animals, survival after 4 hours; read-out: Compound 48/80 lethality test in rats-ED50. The source says:
PROTECTION OF RATS FROM COMPOUND 48/80-INDUCED LETHALITY
Compound 48/80, a mixture of oligomers obtained by condensation of 4-methoxy-N-methylbenzeneethanamine and formaldehyde has been described as a potent histamine releasing agent (Int. Arch. Allergy, 13, 336 (1958)). The protection from compound 48/80-induced lethal circulatory collapse appears to be a simple way of evaluating quantitatively the antihistaminic activity of test compounds. Male rats of an inbred Wistar strain, weighing 240-260 g were used in the experiment. After overnight starvation the rats were transferred to conditioned laboratories (temp.=21±1° C., relative humidity=65±5%). The rats were treated subcutaneously or orally with a test compound or with the solvent (NaCl solution, 0.9%). One hour after treatment there was injected intravenously compound 48/80, freshly dissolved in water, at a dose of 0.5 mg/kg (0.2 ml/100 g of body weight). In control experiments, wherein 250 solvent-treated animals were injected with the standard dose of compound 48/80, not more than 2.8% of the animals survived after 4 hours. Survival after 4 hours is therefore considered to be a safe criterion of a protective effect of drug administration.
Said ED50 -values are the values in mg/kg body weight at which the tested compounds protect 50% of the tested animals against compound 48/80-induced lethality.
Take `O.O=c1oc2ccccc2cc1CCN1CCC(Nc2nc3ccccc3n2Cc2ccco2)CC1` [Compound 14, 3-[2-[4-[[1-(2-furanylmethyl)-1H-benzimidazol-2-yl]amino]-1-piperidinyl]ethyl]-2H-1-benzopyran-2-one monohydrate]: the ED50 came to 0.08 mg/kg.

In the case of `COc1ccc(CCN2CCC(Nc3nc4ncccc4n3Cc3ccc(F)cc3)CC2)cc1` [Compound 2, 1-[(4-fluorophenyl)methyl]-N-[1-[2-(4-methoxyphenyl)ethyl]-4-piperidinyl]-1H-imidazo[4,5-b]pyridin-2-amine], the ED50 is 0.08 mg/kg. For `CNC(=S)N1CCCC(N2CCC(Nc3nc4ccccc4n3Cc3ccc(F)cc3)CC2)C1` (stereo not drawn) [Compound 37, 4-[[1-[(4-fluorophenyl)methyl]-1H-benzimidazol-2-yl]amino]-N-methyl-[1,3'-bipiperidine]-1'-carbothioamide], the ED50 amounted to 0.08 mg/kg.

Consider `Fc1ccc(Cn2c(NC3CCN(CCNC(=S)Nc4ccccc4)CC3)nc3ccccc32)cc1` [Compound 40, N-[2-[4-[[1-[(4-fluorophenyl)methyl]-1H-benzimidazol-2-yl]amino]-1-piperidinyl]ethyl]-N'phenylthiourea], for which the ED50 is 0.16 mg/kg. For `CCN(C(C)=O)c1ccccc1C(=O)NCCN1CCC(Nc2nc3ccccc3n2Cc2ccc(F)cc2)CC1` [Compound 52, 2-(acetylethylamino)-N-[2-[4-[[(1-[(4-fluorophenyl)methyl]-1H-benzimidazol-2yl]amino]-1-piperidinyl]ethyl]benzamide (E) -2-butenedioate(1:2)], the ED50 amounted to 0.31 mg/kg.

Take `CCOC(=S)NCCN1CCC(Nc2nc3ccccc3n2Cc2ccc(F)cc2)CC1` [Compound 35, ethyl [2-[4-[[1-[(4-fluorophenyl)-methyl]-1H-benzimidazol-2-yl]amino]-1-piperidinyl]ethyl]carbamothioate]: the ED50 was found to be 0.16 mg/kg. Next, `O=c1cc[nH]c(=O)n1CCN1CCC(Nc2nc3ccccc3n2Cc2ccc(F)cc2)CC1` [Compound 5, 3-[2-[4-[[1-[(4-fluorophenyl)methyl]-1H-benzimidazol-2-yl]amino]-1-piperidinyl]ethyl]-2,4-(1H,3H)-pyrimidinedione]: 0.08 mg/kg; `O.O=c1oc2ccccc2cc1CCN1CCC(Nc2nc3ccccc3n2Cc2cccnc2)CC1` [Compound 10, 3-[2-[4-[[1-(3-pyridinylmethyl)-1H-benzimidazol-2-yl]amino]-1-piperidinyl]ethyl]-2H-1-benzopyran-2-one monohydrate]: 0.31 mg/kg; `O.OCCCNC(=S)NCCN1CCC(Nc2nc3ccccc3n2Cc2ccc(F)cc2)CC1` [Compound 30, N-[2-[4-[[1-[(4-fluorophenyl)methyl]-1H-benzimidazol-2-yl]amino]-1-piperidinyl]ethyl]-N'(3-hydroxypropyl)thiourea monohydrate]: 0.08 mg/kg.
